Experiments:
maize callus = details: solid medium; cited from earlier work
APAO enzyme = type: biochemical, Exophiala spinifera; details: 1 mM substrate; pH 8.0, room temperature
Procedure: The following assay was used to determine the substrate specificity of the APAO enzyme. […] The APAO enzyme was recombinant enzyme produced,as GST fusion in E. coli, purified over a glutathione affinity column and cleaved with thrombin to remove the GST. All components were mixed at room temperature. The initial rate was determined in a spectrophotometer at 572 nm over one minute by absorbance units/second (BLANK). Ten microliters of APAO at 70 ug/ml was added and mixed. The initial rate was again determined at 572 nm over one minute in absorbance units/second (SAMPLE). The rates were converted to absorbance units/minute. The BLANK value was subtracted from the SAMPLE value. The absorbance units were converted to μM H2O2 wherein 1 μM H2O2 equals 0.138 absorbance units at pH 8.0.

APAO = APAO activity of crude cell-free extract, TLC; type: biochemical, Exophiala spinifera
Procedure: (§1) For analysis of APAO activity, an alternative method was used. Equal volumes of sample and ^14C-AP1 (1 mg/ml, pH 8, 50 mM sodium phosphate) were incubated at room temperature for one to six days. Analytical thin-layer chromatography was then carried out on C60 HPK silica gel plates (Whatman #4807-700; 10×10 cm; 0.2 mm thick). After application of from 0.1 to 2 μl of aqueous sample, the plates were air-dried and developed in CHCl3:MeOH:CH3COOH:H20 (55:36:8:1). Plates were then air dried, and exposed to Phosphorlmager screen (Molecular Dynamics) or autoradiographic film. A Storm™ Phosphorlmager (Molecular Dynamics) was used to scan the image produced on the screen.
A cell-free extract that contains the deaminase activity was obtained by subjecting substrate-induced Exophiala spinifera cells to disruption using a Bead Beater™ in 50 mM Na-phosphate, pH 8.0, and recovering the cell-free supernatant by centrifugation and 0.45 micron filtration. Catabolic activity is assayed by incubating extracts with AP1 (hydrolyzed fumonisin BI backbone) or “^4C-labelled AP1 with the extract and evaluating by TLC on C18 or C60 silica. […] Other amine-containing substrates were tested for modification by the crude extract. […] Preparative amounts of the product, named 2-OP, have also been purified and analyzed by C13 nmr.

Maize coleoptiles = experiment: Effect of FB1 and AP1 on maize coleoptiles; type: cell-based; design: key to Injury of maize coleoptiles: + = brown necrotic discoloration of coleoptile; − = no symptoms (same as water control); details: for Injury of maize coleoptiles: 2 days dark 28° C., then 3 days light
Procedure: Maize coleoptiles from 4 day dark-grown germinated maize seeds were excised above the growing point and placed in 96-well microtiter plates in the presence of 60 microliters of sterile distilled water containing FB1 or AP1 at approximately equimolar concentrations of 1.5, 0.5, 0.15, 0.05, 0.015, 0.005, 0.0015, or 0.0005 millimolar, along with water controls. After 2 days in the dark at 28° C. the coleoptiles were placed in the light and incubated another 3 days.

BMS cells = experiment: Effect of FB1 and AP1 on maize tissue cultured cells (Black Mexican Sweet, BMS); type: cell-based; details: for concentration at which growth of BMS cells was inhibited: 1 week, liquid culture, 96-well plates
Procedure: FB1 or AP1 at various concentrations was added to suspensions of BMS cells growing in liquid culture medium in 96-well polystyrene plates. After 1 week the cell density in wells was observed under low power magnification and growth of toxin-treated wells was compared to control wells that received water. […] This represents an approximate 100-fold difference in toxicity to maize tissue cultured cells. […] AP1 was not tested in that study, however.

Lemna tissues = details: AP1 versus FB1; cited from earlier work
tomato = details: cited from earlier work
[1] = Other enzymes tested for ability to modify AP1, radiolabeled TLC; type: biochemical; details: optimal conditions at 37° Celsius, overnight or longer
Procedure: as §1
Other enzymes were tested for their ability to modify AP1. All enzymes were assayed by radiolabeled TLC, as described above, under optimal conditions at 37° Celsius, overnight or longer.

[2] = Pichia expression of trAPAO, TLC assay; type: biochemical, Pichia pastoris; details: pellet suspensions and lysates; 6 days room temperature
Procedure: The Pichia culture fluids and pellets were assayed for APAO activity as described earlier.
The 50 μl cell pellets were resuspended in 150 μl cold 5OmM Na-phosphate, pH 8.0. and divided into two fresh 500 μl tubes. One tube was kept on ice with no treatment, the pellet suspension, and one tube was used for lysis. An equal volume of 0.1 mm zirconia-silica beads was added to each tube. The tubes were BeadBeatT™ for 15 seconds then cooled on ice 5 minutes. This was repeated three times. The crude lysate was then transferred to another tube for assay or lysate suspension.
The TLC assays were performed as follows, the samples are 1) pellet suspensions; 10 μl; 2) lysate suspensions; 10 μl; 3) media controls-mixed 5 μl media with 5 μl crude fungal enzyme; 10 μl; 4) positive control-used crude fungal enzyme undiluted; 10 μl; 5) substrate control-used 50 mM Na-phosphate, pH8.0; 10 μl. […]
A positive TLC result is obtained if an additional radioactive spot appears at a lower Rf of the produced AP1 modification earlier identified as 2-OP, a deaminated product of AP1. In samples #6 and #52 (without intron) the AP1-modifying enzyme activity (conversion of AP1 to 2-OP) was detected in pellet suspensions and pellet lysates, although the majority of activity was associated with the pellet suspensions. […]

[3] = Mutated APAO lysates from E coli, Amplex Red assay, substrate AP1; type: biochemical; details: Glyc(−) APAO lysates from E coli
[4] = Mutated APAO lysates from E coli, Amplex Red assay, substrate FB1; type: biochemical; details: Glyc(−) APAO lysates from E coli
[5] = Site-directed mutagenesis vectors: maize transient expression, APAO or trAPAO activity; type: biochemical; details: transient expression in maize
Source text: Please see the table above entitled “Table of site-directed mutagenesis vectors and enzyme assay results.” Thus, elimination of this glycosylation site is not in itself sufficient to have an active protein upon secretion. This could be due to glycosylation occurring at a second adjacent site (N201-S203). However, no active APAO was recovered when either N201 or S203 is mutated along with S206. […] This is backed up by predicted solvent accessibility numbers for these residues in the 3-D model based on the maize amine oxidase. Please see the table below entitled “Solvent accessibility for cysteine residues of truncated APAO.” The elimination of APAO glycosylation site at amino acids 204 to 206 is not sufficient to allow APAO to be secreted from the ccil and retain full enzyme activity, but elimination of this site may improve chances for obtaining a fully active enzyme once the other roadblock(s) to secretability have been resolved. In other words, elimination of this site may be necessary but not sufficient to produce active secretable APAO.

CCCC[C@@H](C)[C@@H](OC(=O)C[C@@H](CC(=O)O)C(=O)O)[C@H](C[C@@H](C)C[C@H](O)CCCC[C@@H](O)C[C@H](O)[C@H](C)N)OC(=O)C[C@@H](CC(=O)O)C(=O)O [FB1, fumonisin B1]
concentration giving significant inhibition of maize callus (maize callus): 1400 nM | RATE (APAO enzyme): 0.1429 μM H2O2/min | modification by the crude extract (APAO; crude cell-free extract of induced Exophiala spinifera, TLC): not modified | Injury of maize coleoptiles (Maize coleoptiles; 1.5 mM): + | Injury of maize coleoptiles (Maize coleoptiles; .0005 mM): − | Injury of maize coleoptiles (Maize coleoptiles; .0015 mM): − | Injury of maize coleoptiles (Maize coleoptiles; .005 mM): − | Injury of maize coleoptiles (Maize coleoptiles; .05 mM): + | Injury of maize coleoptiles (Maize coleoptiles; .15 mM): + | Injury of maize coleoptiles (Maize coleoptiles; .5 mM): + | concentration at which growth of BMS cells was inhibited (BMS cells): 400 nM

CCCC[C@@H](C)[C@@H](O)[C@@H](O)C[C@@H](C)C[C@H](O)CCCC[C@@H](O)C[C@H](O)[C@H](C)N [AP1]
less toxic than FB1 in Lemna tissues (Lemna tissues): approx. 40 fold | RATE (APAO enzyme): 0.8876 μM H2O2/min | reduction in toxicity to tomato by AP1 versus FB1 (tomato): ~100 fold | time to complete conversion to 2-OP (APAO; pH 9): 30 min | Injury of maize coleoptiles (Maize coleoptiles; 1.5 mM): + | Injury of maize coleoptiles (Maize coleoptiles; .0005 mM): − | Injury of maize coleoptiles (Maize coleoptiles; .0015 mM): − | Injury of maize coleoptiles (Maize coleoptiles; .005 mM): − | Injury of maize coleoptiles (Maize coleoptiles; .015 mM): − | Injury of maize coleoptiles (Maize coleoptiles; .05 mM): − | Injury of maize coleoptiles (Maize coleoptiles; .15 mM): − | Injury of maize coleoptiles (Maize coleoptiles; .5 mM): − | difference in toxicity between FB1 and AP1 to maize coleoptiles (Maize coleoptiles; AP1 versus FB1): ≥ 30 fold | concentration at which growth of BMS cells was inhibited (BMS cells): 40000 nM | difference in toxicity to maize tissue cultured cells (BMS cells; AP1 versus FB1): ~100 fold

D-amino oxidase: EC 1.4.3.3, porcine kidney: Type X
Result (ability to modify AP1) [1]: negative

B1: trAPAO: truncated, but still functional APAO (SEQ ID NO: 6) (protein, listed as Exophiala spinifera)
chain: DNVADVVVVGAGLSGLETARKVQAAGLSCLVLEAMDRVGGKTLSVQSGPGRTTINDLGAAWINDSNQSEVSRLFERFHLEGELQRTTGNSIHQAQDGTTTTAPYGDSLLSEEVASALAELLPVWSQLIEEHSLQDLKASPQAKRLDSVSFAHYCEKELNLPAVLGVANQITRALLGVEAHEISMLFLTDYIKSATGLSNIFSDKKDGGQYMRCKTGMQSICHAMSKELVPGSVHLNTPVAEIEQSASGCTVRSASGAVFRSKKVVVSLPTTLYPTLTFSPPLPAEKQALAENSILGYYSKIVFVWDKPWWREQGFSGVLQSSCDPISFARDTSIDVDRQWSITCFMVGDPGRKWSQQSKQVRQKSVWDQLRAAYENAGAQVPEPANVLEIEWSKQQYFQGAPSAVYGLNDLITLGSALRTPFKSVHFVGTETSLVWKGYMEGAIRSGQRGAAEVVASLVPAA
APAO activity (conversion of AP1 to 2-OP) in Pichia transformants [2]: functions correctly in degrading AP1

B2: S206A: APAO mutated to alter the serine at position 206 to an alanine (SEQ ID NO: 33) (protein)
chain: MALAPSYINPPNVASPAGYSHVGVGPDGGRYVTIAGQIGQDASGVTDPAYEKQVAQAFANLRACLAAVGATSNDVTKLNYYIVDYAPSKLTAIGDGLKATFALDRLPPCTLVPVSALSSPEYLFEVDATALVPGHTTPDNVADVVVVGAGLSGLETARKVQAAGLSCLVLEAMDRVGGKTLSVQSGPGRTTINDLGAAWINDSNQAEVSRLFERFHLEGELQRTTGNSIHQAQDGTTTTAPYGDSLLSEEVASALAELLPVWSQLIEEHSLQDLKASPQAKRLDSVSFAHYCEKELNLPAVLGVANQITRALLGVEAHEISMLFLTDYIKSATGLSNIFSDKKDGGQYMRCKTGMQSICHAMSKELVPGSVHLNTPVAEIEQSASGCTVRSASGAVFRSKKVVVSLPTTLYPTLTFSPPLPAEKQALAENSILGYYSKIVFVWDKPWWREQGFSGVLQSSCDPISFARDTSIDVDRQWSITCFMVGDPGRKWSQQSKQVRQKSVWDQLRAAYENAGAQVPEPANVLEIEWSKQQYFQGAPSAVYGLNDLITLGSALRTPFKSVHFVGTETSLVWKGYMEGAIRSGQRGAAEVVASLVPAA
modifications: Glyc(-) APAO; mutation in glycosylation sites (Exophiala spinifera)
Conclusion [3]: Partially Active | M H2O2/min [3]: 0.85 μM H2O2/min | Conclusion [4]: Slightly active | M H2O2/min [4]: 0.07 μM H2O2/min | Maize expression vector, APAO or trAPAO Activity (Act) [5]: no detectable enzyme activity
